For data set [1] the following is noted: rat, in vivo, po, 20 mg/kg. The protocol:
The single oral dose of reference Olmesartan Medoxomil was 20 mg/kg, and that of nanostructured Olmesartan Medoxomil formulation was 75.8 mg/kg which corresponds to 20 mg/kg active agent. Both test substances were administered via gastric tube in a dosing volume of 5 ml/kg. The vehicle of the test items was sterile 0.9% NaCl solution supplemented with 0.25% methylcellulose and the suspension was kept homogenous by continuous stirring during treatment in order to minimize the error resulting from the sedimentation.
Male Wistar rats (purchased from Laboratory Animal Center, University of Szeged) were maintained on a standard pellet rodent diet (Bioplan Ltd, Isaszeg, Hungary) under temperature and light-controlled conditions with tap water available ad libitum. The acclimatization period was at least 4 days. Rats were randomized into groups of 6 and each group was used for blood sampling at different time period after Olmesartan Medoxomil treatment. All animals were fasting for 16 hours before oral treatment. […]
An aliquot of 200 μl serum was combined with 20 μl of internal standard working solution and 1.2 ml methanol for protein precipitation. […] Serum Olmesartan concentrations were determined using a standard curve set up from Olmesartan prepared from Olmesartan Medoxomil by enzymatic hydrolysis. […]

The conditions of data set [2]: cited from earlier work.
For data set [3] the following is noted: cited from earlier work. This is another data set of the same source.
For data set [4] the following is noted: rats; cited from earlier work.
The conditions of data set [5]: cited from earlier work. The source holds these as a separate data set.

On to `CCCc1nc(C(C)(C)O)c(C(=O)OCc2oc(=O)oc2C)n1Cc1ccc(-c2ccccc2-c2nnn[nH]2)cc1` [Olmesartan Medoxomil, 2,3-dihydroxy-2-butenyl 4-(1-hydroxy-1-methylethyl)-2-propyl-1-[p-(o-1H-tetrazol-5-ylphenyl)benzyl]imidazole-5-carboxylate, cyclic 2,3-carbonate], for which, in data set [1], the “Area under the serum concentration curve between 15 and 360 min (AUC15-360 min)” value turned out to be 382.5 µg·min/mL; the tmax was 2 h. Also, the solubility in methanol result in data set [2] (methanol) is “sparingly soluble”. Moreover, the solubility in water result in data set [2] (water) is “practically insoluble”.
For the compound `CCCc1nc(C(C)(C)O)c(C(=O)O)n1Cc1ccc(-c2ccccc2-c2nnn[nH]2)cc1` [Olmesartan], the “bound to plasma proteins” value in data set [3] is 99%. Also, in data set [4], the “crossing of the blood-brain barrier” value is recorded as “crossed the blood-brain barrier poorly, if at all”; the distribution to milk entry is given as “distributed to milk at low levels”; the “passage across the placental barrier” value is given as “passed across the placental barrier”. In addition, in data set [5] (in vivo), the absolute bioavailability result is reported as “approximately 26%”, the “effect of food on bioavailability” value is reported as “Food does not affect the bioavailability”, the renal clearance was 0.6 L/h and the terminal elimination half-life entry is “approximately 13 hours”. For the same compound, in data set [5] (in vivo), the total plasma clearance is reported as 1.3 L/h. In addition, the accumulation in plasma result in data set [5] (once-daily dosing) was “no accumulation in plasma”.
